From patent US20240166631A1, “COMPOUND, METHOD FOR PRODUCING AND METHOD FOR STORING COMPOUND, METHOD FOR PRODUCING TARGETING AGENT, AND COMPOSITION” (NIHON MEDI-PHYSICS CO., LTD, priority 2021, published 2024)

Test: Evaluation of storage stability: purity of stored solid DOTAGA-DBCO by HPLC area percentage
Assay type: physicochemical
Conditions: for long-term storage stability (in words): refrigerating or freezing conditions, after 6 months storage
Method: Thereafter, the brown vial containing DOTAGA-DBCO was placed under each of the conditions: room temperature (Example 1: 21 to 25° C.); high temperature (Example 2: 40° C.); refrigerating (Example 3: 5° C.); and freezing (Example 4: -20° C.), and stored for a predetermined period.
Thereafter, the colorless transparent glass vial containing DOTAGA-DBCO was placed under the condition of room temperature (Example 5: 19 to 23° C.) and stored for a predetermined period.
Subsequently, DOTAGA-DBCO obtained by drying in the same manner as in Examples 1 to 4 was put in a brown vial, and the brown vial was placed under each of the conditions: room temperature (Comparative Example 1: 21 to 25° C.); and high temperature (Comparative Example 2: 40° C.), and stored for a predetermined period.
For DOTAGA-DBCOs in each of Examples and Comparative Examples, the purity was measured by the following measurement method at each time point: at the start of storage, after 7 days storage, after 1 month storage, after 3 months storage, and after 6 months storage. The smaller deterioration in purity with respect to the purity at the start of storage, the more excellent the storage stability.
1.0 mg of the objective compound was precisely weighed. For Examples 1 and 2 and Comparative Examples 1 and 2, a mixture of 10 mmol/L ammonium formate solution (pH 3.0)/acetonitrile for liquid chromatography (95:5) was added to make an exactly 10 mL sample solution. For Examples 3 and 4, a mixture of 10 mmol/L ammonium formate solution (pH 3.0)/methanol for liquid chromatography (95:5) was added to make an exactly 10 mL sample solution. For Example 5, methanol for liquid chromatography was added to make an exactly 10 mL sample solution.
For 10 μL of each of these sample solutions, high performance liquid chromatography measurement was conducted under the following conditions. The peak area of the sample solution was measured with automatic integration method, and the amount of these compounds was determined through area percentage method. Each sample solution was prepared one time and measured 3 times. The arithmetic average value of the three measurement results was defined as purity (%). Note that, at the start of storage, each sample solution was prepared and measured one time, respectively.
• Detector (1): ultraviolet absorptiometer (measurement wavelength: 290 nm, 308 nm) • Detector (2): ACQ-QDa (Positive scan: cone voltage 15 V, capillary voltage 0.8 V; Negative scan: cone voltage 15 V, capillary voltage 0.8 V, scanning range: m/z 50 to 1200) • Column: a stainless steel tube having an inner diameter of 4.6 mm and a length of 10 cm, packed with 3.5 μm octadecylsilylated silica gel for liquid chromatography (XBridge C18) • Column temperature: maintained at a constant temperature of about 25° C.
• Mobile phase: (Mobile phase A) 10 mmol/L ammonium formate solution (pH 3.0) and (Mobile phase B) acetonitrile were used for liquid feeding while controlling the concentration gradient (vol %) in the order of the following (i) to (v). The flow rate of each mobile phase was 1 mL/min.

[1] = storage conditions: room temperature
[2] = stored at 5° C. (refrigerating)

SMILES: O=C(O)CN1CCN(CC(=O)O)CCN(C(CCC(=O)NCCC(=O)N2Cc3ccccc3C#Cc3ccccc32)C(=O)O)CCN(CC(=O)O)CC1 (stereo not shown) [Comparative Example 1, DOTAGA-DBCO]
- Purity (%) of compound at storage start [1]: 96.4%
- Purity (%) of compound after 1 month (stored at room temperature): 90.9%
- Purity (%) of compound after 7 days (stored at room temperature): 95.5%

SMILES: O=C(O)CN1CCN(CC(=O)O)CCN(C(CCC(=O)NCCC(=O)N2Cc3ccccc3C#Cc3ccccc32)C(=O)O)CCN(CC(=O)O)CC1 (stereo not shown) [Comparative Example 2, DOTAGA-DBCO]
- Purity (%) of compound at storage start (storage conditions: 40° C.): 96.4%
- Purity (%) of compound after 1 month (stored at 40° C.): 52.2%
- Purity (%) of compound after 7 days (stored at 40° C.): 86.1%

SMILES: O=C(O)CN1CCN(CC(=O)O)CCN(C(CCC(=O)NCCC(=O)N2Cc3ccccc3C#Cc3ccccc32)C(=O)O)CCN(CC(=O)O)CC1 (stereo not shown) [Example 1, DOTAGA-DBCO]
- Purity (%) of compound at storage start [1]: 97.6%
- Purity (%) of compound after 1 month (stored at room temperature): 96.9%
- Purity (%) of compound after 3 months (stored at room temperature): 95.7%
- Purity (%) of compound after 6 months (stored at room temperature): 93.6%
- Purity (%) of compound after 7 days (stored at room temperature): 97.1%

SMILES: O=C(O)CN1CCN(CC(=O)O)CCN(C(CCC(=O)NCCC(=O)N2Cc3ccccc3C#Cc3ccccc32)C(=O)O)CCN(CC(=O)O)CC1 (stereo not shown) [Example 2, DOTAGA-DBCO]
- Purity (%) of compound at storage start (storage conditions: 40° C.): 97.6%
- Purity (%) of compound after 1 month (stored at 40° C.): 96.7%
- Purity (%) of compound after 3 months (stored at 40° C.): 93.9%
- Purity (%) of compound after 6 months (stored at 40° C.): 92.0%
- Purity (%) of compound after 7 days (stored at 40° C.): 96.9%

SMILES: O=C(O)CN1CCN(CC(=O)O)CCN(C(CCC(=O)NCCC(=O)N2Cc3ccccc3C#Cc3ccccc32)C(=O)O)CCN(CC(=O)O)CC1 (stereo not shown) [Example 3, DOTAGA-DBCO]
- long-term storage stability (in words): purity at the start of storage is maintained even after 6 months storage
- Purity (%) of compound at storage start (storage conditions: 5° C. (refrigerating)): 96.9%
- Purity (%) of compound after 1 month [2]: 97.0%
- Purity (%) of compound after 3 months [2]: 93.2%
- Purity (%) of compound after 6 months [2]: 96.8%
- Purity (%) of compound after 7 days [2]: 97.4%

SMILES: O=C(O)CN1CCN(CC(=O)O)CCN(C(CCC(=O)NCCC(=O)N2Cc3ccccc3C#Cc3ccccc32)C(=O)O)CCN(CC(=O)O)CC1 (stereo not shown) [Example 4, DOTAGA-DBCO]
- long-term storage stability (in words): purity at the start of storage is maintained even after 6 months storage
- Purity (%) of compound at storage start (storage conditions: −20° C. (freezing)): 96.9%
- Purity (%) of compound after 1 month (stored at −20° C. (freezing)): 97.6%
- Purity (%) of compound after 3 months (stored at −20° C. (freezing)): 93.5%
- Purity (%) of compound after 6 months (stored at −20° C. (freezing)): 95.5%
- Purity (%) of compound after 7 days (stored at −20° C. (freezing)): 97.4%

SMILES: O=C(O)CN1CCN(CC(=O)O)CCN(C(CCC(=O)NCCC(=O)N2Cc3ccccc3C#Cc3ccccc32)C(=O)O)CCN(CC(=O)O)CC1 (stereo not shown) [Example 5, DOTAGA-DBCO]
- Purity (%) of compound at storage start [1]: 97.5%
- Purity (%) of compound after 1 month (stored at room temperature): 96.0%
- Purity (%) of compound after 7 days (stored at room temperature): 97.2%
